“And” between values parts separate entries of the source, which are not always exact repeats. Equal values may be shown once. “Also recorded” adds a separate entry of the source.
What was measured:
[1] = 15N T1rho ssNMR relaxation of lipid II-bound teixobactin; settings: 60 kHz MAS, in membranes
From the text: (§1) T1rho trajectories were fit to single exponentials.

[2] = HS-AFM control experiments (membrane height; bilayers without lipid II); design: membrane height: unit not given here; settings: for membrane height: source data Ext. Data Fig. 6, DOPC + 1% lipid II, after 30 mins incubation with 800 nM
Protocol: (§2) The HS-AFM images were acquired in amplitude modulation tapping mode in liquid using a high-speed atomic force microscope (RIBM). Short cantilevers (approximately 7 μm) with a nominal spring constant of 0.15 N m^−1 were used (USC-F1.2-k0.15, NanoWorld). A minimal imaging force was applied by using a small set-point amplitude of 0.8 nm (for a 1 nm free amplitude). […] The lipid bilayer was obtained by incubating LUVs containing DOPC and lipid II (prepared as mentioned above) on top of a freshly cleaved mica for 20–30 min. […] Imaging was started on the lipid bilayer surface in recording buffer. […] Images were primarily processed using built-in scripts (RIBM) in Igor Pro (Wavemetrics) and analysed using ImageJ software. The images or videos were corrected minimally for tilt, drift and contrast. […] Image acquisition rate varies from 0.5 frames per second to 2 frames per seconds (see Fig. 2, Extended Data Figs. 5, 6, or legends of Supplementary Videos 1 and 2), and the line rate varies from 150 lines per second to 400 lines per second. […] Stated errors are standard deviation.
Extended Data Fig. 6 HS-AFM control experiments. […] Source data

[3] = system: Staphylococcus simulans; experiment: DiSC membrane depolarization (ion leakage) assay, S. simulans; assay type: cell-based; settings: DiSC-2 probe, Gram-positive bacteria (Fig. 4h and Extended Data Fig. 10b,c), 20 °C, pH 7.2, 2 min before and 6 min after antibiotic; triplicates
Protocol: (§3) The bacterial cultures were grown overnight at 30 °C in TSB media for S. simulans and at 37 °C in LB medium for Bacillus subtilis. Secondary cultures were grown for 3 h until OD600 = 0.5 was reached. The bacterial cells were then centrifuged at 1,500g for 10 min at 4 °C and washed twice with 10 ml of buffer (10 mM Tris, 100 mM NaCl, 1 mM MgCl2 and 0.5% glucose, pH 7.2). The bacterial cells were resuspended to an OD600 = 10 in the buffer and used for the experiment. […] For the assay, 1 μl of the bacterial suspension was added to 1 ml of buffer. For the ion leakage assays, 1 μl of the DiSC-2 probe from a 1 mM stock was added to the cuvette and the fluorescence was measured between a wavelength of 650 nm and 670 nm (bandwidth of […]) for 2 min before the addition of the antibiotic and 6 min after. For the Sytox green leakage assays, 1 μl of the Sytox green probe from a 0.25 mM stock was added to the cuvette and the fluorescence was measured between a wavelength of 500 nm and 520 nm (bandwidth of […]) for 2 min before the addition of the antibiotic and 6 min after. All experiments were performed in triplicates.

[4] = HS-AFM of teixobactin–lipid II fibrils on supported lipid bilayer
Protocol: as §2

[5] = system: S. simulans; experiment: MIC, S. simulans (given with permeabilization assay concentrations); assay type: cell-based; settings: S. simulans
[6] = Static 31P ssNMR: membrane perturbation; settings: lipid II-doped DOPC large unilamellar vesicles
[7] = Scalar TOBSY ssNMR: mobility of the lipid II pentapeptide in the complex; assay type: binding; settings: 8 kHz MAS, 300 K, compared with R4L10-teixobactin
From the text: as §1
Interfacial contacts are labelled in green. Lipid II pentapeptide signals are marked with an asterisk, e.g., A1*αβ. b) Zoom into the spectrum acquired with 300 ms magnetization transfer. […] The spectrum is based on a scalar 2D ^13C^13C TOBSY[35] ssNMR experiment with the complex formed by ^13C,^15N-teixobactin and ^13C,^15N-Lipid II in liposomes acquired at 950 MHz, 8 kHz MAS, and 300 K temperature. Teixobactin and the Lipid II sugars are not visible in the spectrum (cyan). Conversely, the last three residues (Lys3-Ala4-Ala5) of the Lipid II pentapeptide give scalar signals indicating high mobility and no involvement in complex formation. […] Likewise, the K3αγ signal of the third pentapeptide residue was only visible for R4L10-teixobactin. […] All experiments were performed in triplicates. All the parameter values are shown as mean +/− SD.

[8] = system: Staphylococcus simulans; experiment: Sytox green membrane damage assay, S. simulans; assay type: cell-based
Protocol: as §3

[9] = system: B. subtilis; experiment: MIC, B. subtilis (given with permeabilization assay concentrations); assay type: cell-based, Bacillus subtilis
Protocol: as §3

[10] = Isothermal titration calorimetry (ITC), lipid II-containing LUVs titrated into drug; assay type: binding; design: dG / dH / -TdS: unit not given here
Protocol: Isothermal titration calorimetry
For isothermal titration calorimetry (ITC) measurements large unilamellar vesicles (LUVs) containing lysine-lipid II were prepared by incorporating 2 mol% of lysine-lipid II in DOPC from the stock solution. The lipids were dried under a nitrogen stream and hydrated with buffer (20 mM HEPES and 50 mM NaCl, pH 7) to a lipid-phosphate concentration of 20 mM. Finally, unilamellar vesicles were obtained after ten rounds of extrusion through 200-nm membrane filters (Whatman Nuclepore, Track-Etch Membranes). ITC experiments were performed with the Affinity ITC (TA Instruments-Waters LLC) to determine interaction between LUVs and teixobactin. […] The samples were degassed before use. […] The number of injections was 23. Experiments were performed at 37 °C and analysed using the Nano Analyze Software (TA instruments-Water LLC). All experiments were performed in triplicates. Control experiments were performed with lipid II-free DOPC LUVs. The independent model was used to determine the interaction between teixobactin and lipid II. ITC data of R4L10-teixobactin were previously published.

[11] = source data Figure 3e, ITC, Avg of Expt 1-3
[12] = source data Figure 3e, ITC, Expt 1
[13] = source data Figure 3e, ITC, Expt 2
[14] = source data Figure 3e, ITC, Expt 3

teixobactin
overall dynamics in the complex (in words) [1]: The overall dynamics of the molecule is very slow | HS-AFM control result (in words) ([2]; membrane height at positions without fibrils, 30 min after teixobactin): membrane height at positions without fibrils remains unaltered | membrane height ([2]; individual measurement, one line each): 4.81 and 4.99 and 5.22 and 4.65 and 4.79 and 5.05 and 5.1 and 4.77 and 4.67 and 5.01 and 4.5 and 4.97 and 4.95 and 5 and 4.87 and 4.68 and 4.96 and 4.63 and 4.88 and 4.89 and 4.9 and 5.12 and 4.8 | membrane height ([2]; mean): 4.873 | decrease in membrane potential / depolarization (in words) [3]: sharp decrease in the membrane potential | depth of fibrillar sheets below the membrane surface (membrane thinning) ([4]; 50 min after 800 nM teixobactin): approximately 0.5 nm | height of fibrils on the membrane surface ([4]; DOPC bilayer with lipid II, 10 mM Tris-Cl 100 mM NaCl pH 8.0, error is standard deviation): 0.8 ± 0.1 nm | peak-to-peak distance between fibrils in sheets ([4]; after the fibrils have descended into the surface): ~ 8 nm | formation of fibrils (in words) ([4]; lipid II-doped bilayer): Fibrils were solely observed in the presence of both teixobactin and lipid II; also recorded: fibrils solely form in the presence of both teixobactin and Lipid II | concentration stated as 1× MIC [5]: 0.5 µM | membrane perturbation by static 31P ssNMR (in words) [6]: incubation with teixobactin markedly changed the signal | rigidity of lipid II pentapeptide in the complex (in words) [7]: the pentapeptide is more rigid in the complex with teixobactin than with R4L10-teixobactin | membrane damage, Sytox green (in words) ([8]; Sytox green, Gram-positive bacteria, 20 °C, pH 7.2, 2 min before and 6 min after antibiotic, triplicates): Although less pronounced than for nisin, teixobactin also showed clear effects with Sytox green | time of membrane defects in intact bacteria ([8]; intact bacteria, DiSC / Sytox green assays): ≤ 10 min | concentration stated as 10× MIC [9]: 0.2 µM | Kd ([10]; ITC, DOPC LUVs with 2 mol% lysine-lipid II, 20 mM HEPES 50 mM NaCl pH 7, 30 μM drug, 37 °C, mean of three experiments, b18 prints ± 0.008): 80 nM | Kd ([10]; source data Figure 3e, ITC pH 7, 37 °C, Expt 1): 67.4 nM | Kd ([10]; source data Figure 3e, ITC pH 7, 37 °C, Expt 2): 92 nM | Kd ([10]; source data Figure 3e, ITC pH 7, 37 °C, Expt 3): 68.9 nM | dG [10, 11]: -42.29 | dH [10, 11]: -35.03 | dG [10, 12]: -42.58 | dH [10, 12]: -34.03 | dG [10, 13]: -41.78 | dH [10, 13]: -37.92 | dG [10, 14]: -42.52 | dH [10, 14]: -33.14 | -TdS ([10]; source data Figure 3e, ITC, Plot, avg): -7.26
